How the values were obtained:
[1] = system: Rat Model of Glactosamine-Induced Acute Hepatopathy; experiment: Rat model of galactosamine-induced acute hepatopathy; assay type: in vivo; conditions: experimental fluids administered for one day; L-valine 16.88 g/L in lactated Ringer's, 100 mL/kg/day iv; mean ± SD
Experimental: (§1) Crj: Donryu male rats aged 8-9 weeks and weighing 250 g or so were used. During the experiment, the rats were given a dedicated feed MF (product of Oriental Yeast) and water ad libitum. D-Galactosamine HCl (product of Sigma) was dissolved in physiological saline, adjusted to pH 7.0 with 1 N NaOH and used as a solution containing 100 mg of D-galactosamine (hereinafter referred to simply as “galactosamine”) per milliliter. Carbon tetrachloride (product of Wako Pure Chemical Industries) was used as a 50% (v/v) solution in olive oil (product of Wako Pure Chemical Industries). After 12-h fasting, the rats were administered intraperitoneally with galactosamine in a volume of 10 mL/kg or subcutaneously with the carbon tetrachloride solution at a volume of 4 mL/kg to induce hepatopathy. Immediately after the administration, the rats were anesthetized with ether and a catheter was inserted into the right cervical vein of each animal and retained in the central vein. The catheter in the central vein was passed under the skin to connect the blade bones, fitted with a harness, passed through a protective coil and connected to a swivel (Bio-Cannula of Biomedica). The rats were transferred into a metabolic cage and subjected to the experiment under a non-anesthetized and unconstrained condition. The experimental fluids were administered constantly with the pumping speed set at 100 mL/kg/day. The experimental fluids were administered for 1-4 days. The treated groups were two, one being a control group administered with a lactated Ringer's injection [[…] (registered trademark) of Otuka Seiyaku] and the other being an L-Val group administered with valine (L-valine added to lactated Ringer's injection to a concentration of 16.88 g/L). A non-treated (NT) group was also set. After the end of administration of the experimental fluids, the rats were anesthetized with ether and blood was taken from the abdominal aorta; thereafter, autopsy was done to collect liver samples.

[2] = system: Rat Model of CC14-Induced Acute Hepatopathy; experiment: Rat model of carbon tetrachloride-induced acute hepatopathy; assay type: in vivo; conditions: experimental fluids administered for two days; L-valine 16.88 g/L in lactated Ringer's, 100 mL/kg/day iv; mean ± SD
Experimental: as §1

[3] = system: Rat Model of Hepatic Insufficiency due to 90% Hepatectomy; experiment: Rat model of hepatic insufficiency due to 90% hepatectomy; assay type: in vivo
Text: Crj: Donryu male rats aged 8-9 weeks and weighing 250 g or so were used. During the experiment, the rats were given a dedicated feed MF (product of Oriental Yeast) and water ad libitum. After 12-h fasting, the rats were anesthetized with ether and a catheter was inserted into the right cervical vein of each animal and retained in the central vein. Subsequently, the rats were underwent 90% hepatectomy according to the method of Gaub et al. (J. Gaub et al., Hepatology, 4, 902-904, 1984). The catheter in the central vein was passed under the skin to connect the blade bones, fitted with a harness, passed through a protective coil and connected to a swivel (Bio-Cannula of Biomedica). The rats were transferred into a metabolic cage and subjected to the experiment under a non-anesthetized and unconstrained condition. The experimental fluids were administered constantly with the pumping speed set at 100 mL/kg/day. Immediately after the hepatectomy, 3 mL of a 20% glucose solution was administered to the rats subcutaneously; for 3 days after the hepatectomy, the rats were allowed to drink a 10% glucose solution and thereafter tap water. The experimental fluids were administered for 4 or 6 days. The treated groups were two, on being a control group administered with a lactated Ringer's injection [Lactec (registered trademark) of Otuka Seiyaku] and the other being an L-val group administered with valine (L-valine added to lactated Ringer's injection to a concentration of 16.88 g/L). A non-treated (NT) group was also set. After the end of the administration of the experimental fluids, the rats were anesthetized with ether and blood was taken from the abdominal aorta; thereafter, autopsy was done to collect liver samples.

[4] = system: Rat Model of CCl4-Induced Chronic Hepatopathy; experiment: Rat model of CCl4-induced chronic hepatopathy; assay type: in vivo; conditions: feed with 3 wt % L-valine for 14 weeks
Experimental: Crj: Donryu male rats aged 8-9 weeks were used. During the experiment, the rats were given a dedicated feed MF (product of Oriental Yeast) and water ad libitum. Carbon tetrachloride (product of Wako Pure Chemical Industries) was dissolved in olive oil (product of Wako Pure Chemical Industries) to prepare a 50% (v/v) solution, which was administered subcutaneously to the rats for 14 weeks on a twice-a-week basis (to give 28 shots), each time at a dose of 2 mL/kg, thereby preparing models of chronic hepatopathy. During the 14-week experiment, the rats were given an experimental feed which was a dedicated feed MF; this was given as such to the control group and as a mixture with 3 wt % L-valine to the L-val group. A non-treated (NT) group was also set. After the end of the 14-week experiment, the rats were anesthetized with ether and blood was taken from the abdominal aorta; thereafter, autopsy was done to collect liver samples.

[5] = system: Patient with chronic hepatitis C; experiment: Peroral L-valine in patient with chronic hepatitis C; assay type: in vivo, human; conditions: 4-month period after start of oral L-valine 1 g three times a day; mean±SD of four monthly tests
Text: Patient ([…]) with chronic hepatitis C was given oral administration of L-valine on a three-times-a-day basis, with one gram at each time. The average GOT and GPT levels of the patient for a 4-month period before the administration of L-valine were 89.0±21.9 IU/L and 91.5±23.1 IU/L, respectively, in terms of mean±SD obtained by four tests on a monthly basis. The average GOT and GPT levels for a 4-month-period after the start of valine administration were 68.3±20.4 IU/L and 73.0±24.3 IU/L, respectively, in terms of mean±SD obtained by four tests on a monthly basis; thus, significant (p<0.05 in t-test) decreases were observed. An ameliorating effect was also observed in platelet counts; the average platelet count for a 6-month period before the administration of L-valine was 15.7±1.7 (×10^4) in terms of mean±SD obtained by four tests on a monthly or bimonthly basis, whereas the average platelet count for a 4-month period after the start of valine administration was 20.4±0.9 (×104) in terms of mean±SD obtained by four tests on a monthly basis; thus, a significant (p<0.01 in t-test) increase was observed. It was therefore clear that L-valine is also effective in patients with chronic hepatitis.

[6] = experimental fluids administered for four days, mean ± SD
[7] = experimental fluids administered for six days, 20 animals

SMILES: CC(C)[C@H](N)C(=O)O [L-Val, L-valine]
- Alb [1]: 2.5 ± 0.1 g/dL
- Fischer ratio BCAA/AAA [1]: 6.42 ± 0.40
- GOT [1]: 760.2 ± 215.4 IU/1
- GPT [1]: 415.7 ± 180.8 IU/1
- LDH [1]: 973.7 ± 362.0 IU/1
- TP [1]: 4.9 ± 0.3 g/dL
- Fischer ratio BCAA/AAA [2]: 4.32 ± 1.74
- GOT [2]: 3241.9 ± 2567.2 IU/1
- GPT [2]: 1951.2 ± 1730.9 IU/l
- LDH [2]: 3040.1 ± 4163.3 IU/l
- TP [2]: 5.1 ± 0.4 g/dL
- Alb [3, 6]: 1.8 ± 0.2 g/dL
- Fischer ratio BCAA/AAA [3, 6]: 3.33 ± 1.11
- GOT [3, 6]: 402.3 ± 302.4 IU/l
- GPT [3, 6]: 134.9 ± 76.3 IU/l
- TP [3, 6]: 3.6 ± 0.5 g/dL
- No. of deaths [3, 7]: 1
- No. of viable cases [3, 7]: 19
- Viability ([3]; experimental fluids administered for six days, 20 animals, P < 0.01 vs control): 95%
- No. of deaths ([4]; 10 animals): 0
- No. of viable cases ([4]; 10 animals): 10
- Retention of ascites (No. of cases) ([4]; 10 animals): 1
- Retention of pleural effusion (No. of cases) ([4]; 10 animals): 0
- Fischer ratio BCAA/AAA ([4]; mean ± SD): 3.17 ± 0.96
- average GOT level [5]: 68.3±20.4 IU/L
- average GPT level [5]: 73.0±24.3 IU/L
- average platelet count [5]: 20.4±0.9 ×104
